From PubChem BioAssay (NCI)
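Test compounds were applied to cells in 96-well plates for 48 hours at 5 doses. GI50 = concentration required for 50% inhibition of growth. TGI: total growth inhibition.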

Key:
Experiment in all cases: inhibition of tumour cell growth, NCI panel, 48 h; in the data active means GI50 below about 0.43 µM; inactive means the rest
[1] = test system: 786-0 renal
[2] = test system: A549 NSCLC
[3] = test system: ACHN renal
[4] = test system: BT-549 breast
[5] = test system: CAKI-1 renal
[6] = test system: CCRF-CEM leukemia
[7] = test system: COLO 205 colon
[8] = test system: DU-145 prostate
[9] = test system: EKVX NSCLC
[10] = test system: HCC-2998 colon
[11] = test system: HCT-116 colon
[12] = test system: HCT-15 colon
[13] = test system: HL-60(TB) leukemia
[14] = test system: HOP-62 NSCLC
[15] = test system: HOP-92 NSCLC
[16] = test system: HS 578T breast
[17] = test system: HT29 colon
[18] = test system: IGROV1 ovarian
[19] = test system: K-562 leukemia
[20] = test system: KM12 colon
[21] = test system: LOX IMVI melanoma
[22] = test system: MALME-3M melanoma
[23] = test system: MCF7 breast
[24] = test system: MDA-MB-231 breast
[25] = test system: MDA-MB-435
[26] = test system: MOLT-4 leukemia
[27] = test system: NCI-H226 lung
[28] = test system: NCI-H23 lung
[29] = test system: NCI-H460 lung
[30] = test system: NCI-H522 lung
[31] = test system: NCI/ADR-RES ovarian
[32] = test system: OVCAR-3 ovarian
[33] = test system: OVCAR-4 ovarian
[34] = test system: OVCAR-5 ovarian
[35] = test system: OVCAR-8 ovarian
[36] = test system: PC-3 prostate
[37] = test system: RPMI-8226 leukemia
[38] = test system: RXF 393 renal
[39] = test system: SF-268 CNS
[40] = test system: SF-295 CNS
[41] = test system: SF-539 CNS
[42] = test system: SK-MEL-2 melanoma
[43] = test system: SK-MEL-28 melanoma
[44] = test system: SK-MEL-5 melanoma
[45] = test system: SK-OV-3 ovarian
[46] = test system: SN12C renal
[47] = test system: SNB-19 CNS
[48] = test system: SNB-75 CNS
[49] = test system: SW-620 colon
[50] = test system: T-47D breast
[51] = test system: TK-10 renal
[52] = test system: U251 CNS
[53] = test system: UACC-257 melanoma
[54] = test system: UACC-62 melanoma
[55] = test system: UO-31 renal

O=C1NC(c2ccccc2)C2(C(=O)O)CN(C3CC3)c3cc(N4CCNCC4)c(F)cc3C2N1 (stereo not given)
> 100 µM: TGI [1] | TGI [2] | TGI [3] | TGI [4] | TGI [5] | TGI [6] | TGI [7] | TGI [8] | TGI [9] | TGI [10] | TGI [11] | TGI [12] | TGI [13] | TGI [14] | TGI [15] | TGI [16] | TGI [17] | TGI [18] | TGI [19] | TGI [20] | TGI [21] | TGI [22] | TGI [23] | TGI [24] | TGI [25] | TGI [26] | TGI [27] | TGI [28] | TGI [29] | TGI [30] | TGI [31] | TGI [32] | TGI [33] | TGI [34] | TGI [35] | TGI [36] | TGI [37] | TGI [38] | TGI [39] | TGI [40] | TGI [41] | TGI [42] | TGI [43] | TGI [44] | TGI [45] | TGI [46] | TGI [47] | TGI [48] | TGI [49] | TGI [50] | TGI [51] | TGI [52] | TGI [53] | TGI [54] | TGI [55]
inactive: GI50 [1] > 100 µM | GI50 [2] > 100 µM | GI50 [3] > 100 µM | GI50 [4] > 100 µM | GI50 [5] > 100 µM | GI50 [6] > 100 µM | GI50 [7] > 100 µM | GI50 [8] > 100 µM | GI50 [9] > 100 µM | GI50 [10] > 100 µM | GI50 [11] > 100 µM | GI50 [12] > 100 µM | GI50 [13] > 100 µM | GI50 [14] > 100 µM | GI50 [15] > 100 µM | GI50 [16] > 100 µM | GI50 [17] > 100 µM | GI50 [18] > 100 µM | GI50 [19] > 100 µM | GI50 [20] > 100 µM | GI50 [21] > 100 µM | GI50 [22] > 100 µM | GI50 [23] > 100 µM | GI50 [24] > 100 µM | GI50 [25] > 100 µM | GI50 [26] > 100 µM | GI50 [27] > 100 µM | GI50 [28] > 100 µM | GI50 [29] > 100 µM | GI50 [30] > 100 µM | GI50 [31] > 100 µM | GI50 [32] > 100 µM | GI50 [33] > 100 µM | GI50 [34] > 100 µM | GI50 [35] > 100 µM | GI50 [36] > 100 µM | GI50 [37] > 100 µM | GI50 [38] > 100 µM | GI50 [39] > 100 µM | GI50 [40] > 100 µM | GI50 [41] > 100 µM | GI50 [42] > 100 µM | GI50 [43] > 100 µM | GI50 [44] > 100 µM | GI50 [45] > 100 µM | GI50 [46] > 100 µM | GI50 [47] > 100 µM | GI50 [48] > 100 µM | GI50 [49] > 100 µM | GI50 [50] > 100 µM | GI50 [51] > 100 µM | GI50 [52] > 100 µM | GI50 [53] > 100 µM | GI50 [54] > 100 µM | GI50 [55] > 100 µM
